Read-outs that look alike come from different tables or passages of the source.
What was measured:
[1] = target: T1, Glucocorticoid Receptor (GR) (Homo sapiens, UniProt P04150); assay: GR Fluorescence Polarization Assay (PolarScreen Glucocorticoid Receptor Competitor Assay, Red); conditions: fluorescence polarization binding ranges
T1 construct: purchased Invitrogen P2893
T1 sequence (P04150 1-777): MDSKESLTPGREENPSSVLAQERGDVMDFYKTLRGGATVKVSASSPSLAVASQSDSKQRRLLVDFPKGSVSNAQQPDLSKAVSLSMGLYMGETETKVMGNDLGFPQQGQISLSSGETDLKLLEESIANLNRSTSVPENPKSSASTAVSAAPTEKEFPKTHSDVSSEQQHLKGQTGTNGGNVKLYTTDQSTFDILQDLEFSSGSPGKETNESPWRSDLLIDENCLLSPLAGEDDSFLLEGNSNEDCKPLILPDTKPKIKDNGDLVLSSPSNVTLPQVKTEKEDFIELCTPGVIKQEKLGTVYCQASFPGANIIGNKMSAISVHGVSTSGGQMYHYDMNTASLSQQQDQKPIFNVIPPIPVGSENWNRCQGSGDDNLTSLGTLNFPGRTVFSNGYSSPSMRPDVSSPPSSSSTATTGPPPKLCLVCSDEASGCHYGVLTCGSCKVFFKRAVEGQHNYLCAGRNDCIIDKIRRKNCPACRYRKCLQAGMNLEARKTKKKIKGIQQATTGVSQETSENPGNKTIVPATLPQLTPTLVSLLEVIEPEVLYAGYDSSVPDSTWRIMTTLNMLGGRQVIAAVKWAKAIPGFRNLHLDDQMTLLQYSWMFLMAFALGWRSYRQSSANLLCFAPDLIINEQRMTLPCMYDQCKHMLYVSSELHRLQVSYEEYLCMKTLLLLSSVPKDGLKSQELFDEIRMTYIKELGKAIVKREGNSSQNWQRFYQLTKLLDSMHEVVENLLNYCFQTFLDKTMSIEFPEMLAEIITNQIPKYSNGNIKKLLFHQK
Method: Fluorescence polarization assays were carried out using the PolarScreen™ Glucocorticoid Receptor Competitor Assay, Red from Invitrogen (P2893). The assay buffer was prepared according to the manufacturer's protocol and used to dilute the fluorescent glucocorticoid and GR. Compounds were prepared and serial diluted 1:4 in DMSO. Compound, fluorescent glucocorticoid and GR were added in a final volume of 20 μL and incubated overnight at 4° C. Fluorescent polarization was measured on the PerkinElmer Envision®. Fluorescence polarization binding ranges measured using GR Fluorescence Polarization Assay: […]

[2] = test system: IL-6; assay: A549 Cell Assay to Measure Inflammation Markers (inhibition of IL-1β-induced IL-6); type: cell-based; conditions: A549 cells, read-out: A549 cell assay
Method: A549 Cell Assay to Measure Inflammation Markers
A549 cells were seeded (3E4 cells/well) in 96-well assay plates in culture medium (100 μL/well., F-12 K base media, supplemented with 10% FBS and 100 μ/mL-100 μg/mL Pen-Strep.) After overnight culture in an incubator set to 37° C., 4.9% CO2, and 90% humidity, media was removed from adherent cells by aspiration and replaced with 100 μL/well Assay Medium (F-12 K base media supplemented with 5% charcoal stripped calf sera and 100 U/mL-100 μg/mL Pen-Strep.) Compounds were prepared in DMSO and serial diluted (1:3, 1:4, or 1:5) with DMSO in Dilution Plate(s) to give 10 dilution points for each compound tested. Further dilution (1:250) of compound was made into assay medium and 50 μL/well diluted drug or DMSO/media control was applied to cells. After a 1 h pre-incubation in a temperature, CO2, and humidity controlled incubator, set to 37° C., 50 μL/well of 4 ng/mL IL-1β diluted in assay media, was applied to cultures. Assay plates, with a final volume of 200 μL/well and final concentrations of 0.1% DMSO and 1 ng/mL IL-1β were returned to incubator for a four h incubation period. Next, plates were spun at 183 g (1000 rpm in Beckman/Coulter Allegra 6KR centrifuge) for 10 min. Cell-free supernatant (150 μL/well) was collected and IL-6 was measured by MSD kit, following protocol of manufacturer, and using MSD SECTOR Imager 6000 instrument. Potency of compounds to inhibit IL-6 was determined using the percent reduction of measured IL-6 in wells with compound compared to control wells without drug, and relative to (100% inhibition) positive control compound of 1 μM prednisolone. Results were represented as IC50 and Emax values. To verify that viable cell numbers were similar across plate(s), and not confounding compound IC50 data interpretation, the remaining 50 μL/well of cells and media (after removal of supernatant) were used to run Cell Titer-Glo Assay per directions of manufacturer.

| IC50 [1] [nM] | IC50 [2] [nM] | IC50 ([2]; Homo sapiens) [nM] | Compound |
| --- | --- | --- | --- |
| < 100 | < 100 |  | CC[C@@]12CC[C@](O)(COC)C[C@@H]1CCCc1cc3c(cnn3-c3ccnc(C)c3)cc12 (racemic) [Example 45] |
| < 100 |  | < 100 | OC[C@@]12CC[C@](O)(C(F)(F)F)C[C@H]1CCCc1cc3c(cnn3-c3ccc(F)cc3)cc12 (racemic) [Example 80] |
| < 100 |  | < 100 | CC[C@@]12CC(=O)[C@](C)(O)C[C@@H]1CCCc1cc3c(cnn3-c3ccc(F)cc3)cc12 (racemic) [Example 100, rac-(3R,4aS,12bR)-12b-Ethyl-9-(4-fluorophenyl)-3-hydroxy-3-methyl-1,3,4,4a,5,6,7,12b-octahydrobenzo[6,7]cyclohepta[1,2-f]indazol-2(9H)-one] |
| < 100 | < 100 |  | CC[C@@]12CC[C@](O)(COC)C[C@@H]1CCOc1cc3c(cnn3-c3ccc(F)cc3)cc12 (racemic) [Example 129] |
| < 100 |  | < 100 | CC[C@@]12CC[C@](O)(COC)C[C@@H]1CCOc1cc3c(cnn3-c3ccncc3)cc12 (racemic) [Example 132] |
| 100 to 1000 |  |  | CC[C@@]12CC[C@](O)(COC)C[C@@H]1CCOc1cc3c(cnn3-c3nnc(C)s3)cc12 (racemic) [Example 139] |
| < 100 |  | < 100 | C[C@@]1(O)CC[C@@]2(Cc3ccccn3)c3cc4cnn(-c5ccc(F)cc5)c4nc3CCC[C@H]2C1 (racemic) [Example 148, rac-(3R,4aS,12bS)-9-(4-Fluorophenyl)-3-methyl-12b-(pyridin-2-ylmethyl)-1,2,3,4,4a,5,6,7,9,12b-decahydrobenzo[3,4]cyclohepta[1,2-b]pyrazolo[4,3-e]pyridin-3-ol] |
| 1000 to 10000 |  | 100 to 1000 | CC[C@]12CC[C@](O)(C(F)(F)F)C[C@@H]1CCCc1nc3c(cnn3-c3ccc(F)cc3)cc12 (racemic) [Example 151, rac-(3R,4aS,12bS)-12b-Ethyl-9-(4-fluorophenyl)-3-(trifluoromethyl)-1,2,3,4,4a,5,6,7,9,12b-decahydrobenzo[3,4]cyclohepta[1,2-b]pyrazolo[4,3-e]pyridin-3-ol] |
| < 100 |  | < 100 | CC[C@@]12CC[C@](O)(C(F)(F)F)C[C@H]1CCCc1nc3c(cnn3-c3ccc(F)cc3)cc12 (racemic) [Example 152, rac-(3R,4aR,12bR)-12b-ethyl-9-(4-fluorophenyl)-3-(trifluoromethyl)-1,2,3,4,4a,5,6,7,9,12b-decahydrobenzo[3,4]cyclohepta[1,2-b]pyrazolo[4,3-e]pyridin-3-ol] |
| 100 to 1000 |  | > 10000 | O[C@@]1(C(F)(F)F)CC[C@@]2(Cc3ccccn3)c3cc4cnn(-c5ccc(F)cc5)c4nc3CCC[C@H]2C1 (racemic) [Example 155, rac-(3R,4aR,12bR)-9-(4-Fluorophenyl)-12b-(pyridin-2-ylmethyl)-3-(trifluoromethyl)-1,2,3,4,4a,5,6,7,9,12b-decahydrobenzo[3,4]cyclohepta[1,2-b]pyrazolo[4,3-e]pyridin-3-ol] |
| < 100 |  | < 100 | O[C@]1(C(F)(F)F)CC[C@@]2(Cc3ccccn3)c3cn4cnc(-c5ccc(F)cc5)c4cc3CCC[C@@H]2C1 (racemic) [Example 166, rac-(3R,4aR,13bS)-9-(4-fluorophenyl)-13b-(pyridin-2-ylmethyl)-3-(trifluoromethyl)-2,3,4,4a,5,6,7,13b-octahydro-1H-benzo[3,4]cyclohepta[1,2-d]imidazo[1,5-a]pyridin-3-ol] |
| < 100 |  | < 100 | COC[C@@]1(O)CC[C@@]2(Cc3ccccn3)c3cn4cnc(-c5ccc(F)cc5)c4cc3CCC[C@H]2C1 (racemic) [Example 167, rac-(3R,4aS,13bS)-9-(4-Fluorophenyl)-3-(methoxymethyl)-13b-(pyridin-2-ylmethyl)-2,3,4,4a,5,6,7,13b-octahydro-1H-benzo[3,4]cyclohepta[1,2-d]imidazo[1,5-a]pyridin-3-ol] |
| < 100 |  | < 100 | CC[C@]12CC[C@](O)(C(F)(F)F)C[C@H]1CCCc1cc3c(cnn3-c3ccc(F)cc3)cc12 (single isomer, unassigned) [Example 2] |
| 100 to 1000 |  | 100 to 1000 | CCC[C@@]1(O)CC[C@]2(CC)c3cc4cnn(-c5ccc(F)cc5)c4cc3CCC[C@H]2C1 (single isomer, unassigned) [Example 6] |
| 100 to 1000 |  | > 10000 | CC[C@]12CC[C@](O)(COC)C[C@@H]1CCCc1cc3c(cnn3-c3ccc(F)cc3)cc12 (single isomer, unassigned) [Example 8] |
| 100 to 1000 |  |  | O=C(NC1CC1)[C@@]12CC[C@](O)(C(F)(F)F)C[C@H]1CCCc1cc3c(cnn3-c3ccc(F)cc3)cc12 (single isomer, unassigned) [Example 86] |
| 100 to 1000 |  |  | CC[C@]12CC[C@@](O)(COC)C[C@H]1CCOc1cc3c(cnn3-c3ccnc(C)c3)cc12 (single isomer, unassigned) [Example 127] |
| 100 to 1000 |  |  | C[C@]1(O)CC[C@]2(Cc3ccccn3)c3cc4cnn(-c5ccc(F)cc5)c4nc3CCC[C@@H]2C1 (single isomer, unassigned) [Example 150] |
| 100 to 1000 |  |  | Cc1cc(-n2ncc3cc4c(cc32)CCC[C@@H]2C[C@@](C)(O)CC[C@]42Cc2ccccn2)ccn1 [Example 61] |
|  | < 100 |  | Cc1cc(-n2ncc3cc4c(cc32)CCC[C@H]2C[C@@](O)(CC#N)CC[C@@]42Cc2ccccn2)ccn1 [Example 70] |
| 100 to 1000 |  |  | CC[C@]12CC[C@@](OP(=O)(O)O)(C(F)(F)F)C[C@@H]1CCCc1cc3c(cnn3-c3ccc(F)cc3)cc12 [Example 101, (3S,4aS,12bS)-12b-Ethyl-9-(4-fluorophenyl)-3-(trifluoromethyl)-1,2,3,4,4a,5,6,7,9,12b-decahydrobenzo[6,7]cyclohepta[1,2-f]indazol-3-yl dihydrogen phosphate] |
| 1000 to 10000 |  |  | CC[C@]12CC[C@@](O)(COC)C[C@H]1CCOc1cc3c(cnn3-c3ccnc(OC)c3)cc12 [Example 137] |
| 100 to 1000 |  |  | CC[C@]12CC[C@@](O)(COC)C[C@H]1CCOc1cc3c(cnn3-c3ccnc(C(F)(F)F)c3)cc12 [Example 140] |
| 100 to 1000 |  |  | CC[C@]12CC[C@](C)(O)C[C@H]1CCOc1cc3c(cnn3-c3ccnc(C)c3)cc12 [Example 142] |
| 100 to 1000 |  |  | CC[C@]12CC[C@@](O)(CC#N)C[C@H]1CCOc1cc3c(cnn3-c3ccnc(C)c3)cc12 [Example 144] |
| 100 to 1000 |  |  | COC[C@]1(O)CC[C@]2(Cc3ccccn3)c3cc4cnn(-c5ccc(F)cc5)c4nc3CCC[C@H]2C1 [Example 157] |
| 100 to 1000 |  |  | COC[C@]1(O)CC[C@]2(Cc3ncccn3)c3cc4cnn(-c5ccc(F)cc5)c4nc3CCC[C@@H]2C1 [Example 159] |
| 100 to 1000 |  |  | C[C@@]1(O)CC[C@@]2(Cc3ncccn3)c3cc4cnn(-c5ccc(F)cc5)c4nc3CCC[C@H]2C1 [Example 161] |
| 100 to 1000 |  |  | N#CC[C@]1(O)CC[C@]2(Cc3ccccn3)c3cc4cnn(-c5ccc(F)cc5)c4nc3CCC[C@@H]2C1 [Example 164] |
| 100 to 1000 |  |  | CC[C@]12CC[C@@](OS(N)(=O)=O)(C(F)(F)F)C[C@@H]1CCCc1cc3c(cnn3-c3ccc(F)cc3)cc12 [Example 170, (3S,4aS,12bS)-12b-ethyl-9-(4-fluorophenyl)-3-(trifluoromethyl)-1,2,3,4,4a,5,6,7,9,12b-decahydrobenzo[6,7]cyclohepta[1,2-f]indazol-3-yl sulfamate] |

— patent US9193744B2, “Heterocyclic nuclear hormone receptor modulators” (AbbVie Inc., priority 2012, dated 2015)
